The test system of one assay is Radish seedlings. As to the kind of experiment: Radish seedling assay, immersion in nutrient solution with α-mannosides. In kind it is in vivo. To be noted: for growth response compared to Nutrient Control (visual): 1 mM TAM, 100 μM MP, 25 μM to 500 μM MeM, 10 μM APM. Here is the method:
Plants were cultured in research facilities and consistency of response to treatments was achieved by supplementation with chelated calcium and manganese. All plants were regularly given modified Hoagland water-culture nutrients. […] Controls were placed in the same location and all plants were given the same irrigation, fertilizers, and handling, but without the experimental compounds. Plants were matched to controls and treated within a week of emergence of cotyledon and true leaves. The performance of compounds was evaluated by comparing means of individual dry weights of shoots and roots. Statistics applied two-tailed Student's t-test with p-values significant within 95% confidence intervals. Counts of populations are “n” values and standard error is denoted “±SE.” Specialty chemicals included the following: tetramethyl-β-D-glucoside (TMG); tetraacetyl-D-glucopyranose (TAG); pentaacetyl-α-D-mannopyranose (MP); p-amino-phenyl-α-D-mannoside (APM); methyl-α-D-mannoside (MeM) and methylglucoside (MeG). MPG was synthesized. 2,3,4,6-tetra-O-acetyl-D-mannopyranose (αβ) was utilized. As required, MP and APM were dissolved in a lower aliphatic alcohol prior to dilution in aqueous media.
Assay—Radish seedlings were treated with α-mannosides after emergence of radicles. Seedlings were matched and transferred to Nutrient Control or treatment solutions. Assays were maintained under environmental conditions as follow: Photosynthetically active radiation 100 μEin·m^−2·sec^−1, diel cycle of 16:8 h light:dark, 26:26° C.

Assay [1] concerns radish (Raphanus sativus L., cultivar "Cherry Bell"). In words: Radish seed germination and seedling growth, nutrient omission media. The class given is in vivo. How it is done: Treatment of seeds and seedlings by aqueous solutions is exemplified by mannosides supplemented with soluble divalent cations in complete mannosides formulations. […] Benefits of such exemplary seed priming methods are as follows: Germination and early growth of radish (Raphanus sativus L., cultivar “Cherry Bell”) and Swiss Chard (Beta vulgaris subspecies cicla L., cultivar “Fordhook® Giant”) were tested for response to α-mannosides supplemented with Ca^2+ and/or Mn^2+. Rapid assays of radish seed germination and growth used hydroponic cultures with no solid medium; longer experiments with Swiss Chard used a 2-5 mm substratum of 700 μm diameter glass microbeads. Neutralization of glass microbeads may be undertaken with dilute mildly acidic solution titrated to pH 6; for example, with mineral acids such as hydrochloric acid, sulfuric acid, nitric acid, and the like; organic acids such as uronic, citric, malic, lactic, salicylic, ascorbic, succinic, oxaloacetic, ketoglutaric, fumaric acids, and amino acids, and the like; artificial biological buffering agents such as TRIS, BIS TRIS, MES, MOPS, HEPES, and the like; fertilizers; and most preferably, phosphates; and the most highly preferred compounds are combinations of compounds in a pH 6-buffer that provide major nutrients for plants, such as MAP with DKP or DAP with MKP; and the like. When test medium was added, the glass microbeads formed an even layer, drawing liquid to the surface by capillary action. Seeds were examined to exclude aberrantly large, small, or damaged seeds, and were placed on the surface of the substratum. For experiments using post-germination seedlings, seeds were germinated in deionized water prior to exposure to nutrient media. A seed with an emerged radicle >1 mm was recorded as germinated, and germinated seeds were counted daily, until 95% germination. There was no visible evidence of either desiccation or waterlogging effects. Glass microbeads were removed by immersion and agitation in water, or manually with fine forceps. Harvested plants were oven-dried to determine dry weight. Treatment and control solutions were prepared by dissolving nutrients in deionized ultrapure water.
Growth media were based on omission or inclusion of glycosides and targeted divalent cations. Triose is the abbreviation for α-1,3-α-1,6 mannotriose) and MEM is methyl-α-D-mannoside. Terminology used herein indicates the omission or inclusion of nutrients: 000=control medium with no glycoside, Ca^2+ or Mn^2+; MeMOO=medium with MeM, but no Ca^2+ or Mn^2+; MeMCaO=medium with MeM and Ca^2+, but no Mn^2+, OCaMn=medium with no MeM, but with Ca^2++Mn^2+; and so on. Similar terminology is used for media containing triose. Results cited are means±SE. […]

Assay [2] relates to radish "Cherry Bell" Raphanus sativus L. In words: Greenhouse foliar treatment of radish, root dry weight. In kind it is in vivo. Particulars: for active concentration applied for growth response: foliar, radish. Here is the method: Plant responses to formulations of an alkyl-α-D-mannopyranose and an electron donating-aryl-α-D-mannopyranose were consistent with preferred binding tendencies to displace glucose from storage. Plants were maintained in automated greenhouses controlled for temperature, light and circulation. Environmental conditions during the course of the studies averaged 13:11 hour L:D photoperiod, 25°:20° C. day:night and 20% to 80% relative humidity. Sunlight was supplemented with electrical illumination to achieve photosynthetically active radiation levels ranging from 350 to 600 μmol photons·m^−2·s^−1 at the level of the phylloplane. Solutions for treated and control plants were applied within an hour, otherwise subjecting all plants to identical conditions consistent with good laboratory practices. Solutions applied to controls included nutrients and surfactants identical to the treatment solution, but without the active compound. General supplementation of foliar formulations included the following: 10-100 mM ammonium salt; 1-6 ppm manganese, Mn-EDTA; and 5-10 ppm calcium, Ca-EDTA. For example, foliar solutions of 0.3 mM p-aminophenylmannopyranoside, hereafter referred to as APM, were supplemented with 23 mM ammonium sulfate, (NH4)2SO4, 3 ppm Mn and 6 ppm Ca; and Nutrient Control contained 23 mM (NH4)2SO4, 3 ppm Mn and 6 ppm Ca. The foliar concentrations of Mn and Ca were higher than those specified previously because of the low volumes of foliar applications relative to hydroponic root immersion volumes, and they were particularly effective in combination with foliar applications of compounds because they supported high rates of productivity in the treated plants without phytotoxicity. Compounds for experimentation included the following: methyl-α-D-mannopyranoside (MeM), APM, and methyl-α-D-glucopyranoside (MeG). All foliar solutions were formulated with 1 gm/liter surfactant blend consisting of 0.5 gram DowCorning Q5211 dispersed into 1.5 grams BASF Pluronic L62. As a matter of course, untreated controls that foliar nutrients and wetting agents were not introducing artifacts. The standard volume for foliar application of experimental treatments was 200 liters/hectare. Identical volumes of foliar spray per tray of plant cultures were applied mechanically in a single pass. Controls were placed in the same location and given identical irrigation and handling as the treated plants. To compare the effects of treatments under tightly controlled conditions, plants were cultured, harvested, cleaned and weighed as per previously described methods. Treated plants were statistically analyzed in comparisons against controls. Each survey population held sufficient replicate sample numbers to make meaningful statistical analyses utilizing SPSS® software. Significance was determined at the 95% confidence interval (CI) of the difference. Counts of population numbers are denoted as “n” values. For experiments, radish “Cherry Bell” Raphanus sativus L., a root crop was planted and treated. […] Therefore, least concentrations were selected for statistical experimentation; and 200 l/ha foliar 1 mM MeM or 0.3 mM APM in nutrient-supplemented formulations were applied to 5 cm tall sprouts; while, Nutrient Controls were given foliar applications of identical solutions without the α-D-glycopyranosides; and no foliar solutions were applied to untreated controls which were otherwise identically cultivated and irrigated. For our quantification experiments, when improvements of root productivity over those of nutrient controls were visibly discernible 12 d after treatment, all populations of controls and treatments were harvested, and individual dry weights of treatment and control populations were analyzed.

For the next assay, the system named is plants. In words: Relative potency of glycosides on plants (stated, no method). To be noted: in vivo.
Another assay has as its system radish. As to the kind of experiment: Foliar application to radish grown hydroponically in 700 μm microbeads. The class given is in vivo. To be noted: with 3 ppm Mn, 6 ppm Ca. How it is done:
Approximately 200 grams of beads/cell filled individual 100 cc cells of plastic flats. Roots of radish are cultivated hydroponically by immersion of roots in 700 μm nmd shot, pre-moistened with buffered nutrient solution that included soluble Mn and Ca, and plants were allowed to grow for 72 h prior to treatment with aminophenyl-α-D-mannopyranoside.
4-aminophenyl-α-D-mannopyranoside was dissolved in water (APM needs first to be solubilized in a small volume (1 ml) of ethanol prior to being added into water) with 3 ppm Mn as EDTA, 6 ppm Ca as EDTA, 10% isopropyl alcohol and 1.5 g/L Pluronic L-62. A solution of the formulation was applied to radish foliage. When compared to an identical control formulation without the aminophenyl-α-D-mannopyranoside, the above formulation provided a 20% root increase. For aminophenyl-α-D-mannopyranoside, the proper dose for radish is between 1 to 100 μg per plant and preferably between 5 to 50 μg per plant. This is the equivalent to an application of 75 to 100 gallons per acre at a preferred volume of 100 gallons per acre of up to 2 gm/liter.

The test system of a further assay is Crocus. As to the kind of experiment: Rooted Crocus cultivated in 700 μm silicate microbeads, treated with formulation. The class given is in vivo. Particulars: 0.3 mM APM with 3 ppm Mn, 6 ppm Ca; Crocus in 700 μm microbeads. Here is the method: Individual plants were started from seeds, bulbs, or vegetative clones, inserted into containers of pre-moistened microbeads. Seedlings included ryegrass and corn; bulbs were of Crocus and paperwhite narcissus; and vegetative cuttings were from Coleus. Seeds generally germinated and were selected according to day of emergence of first roots as control and treatment sets. Roots were treated thereafter.
Plants were cultivated under controlled environmental conditions as follow: GE Ecolux® plant and aquarium F40T12 fluorescent illumination, photosynthetically active radiation (PAR) of 100 μEin·m^−2·s^−1, diel cycle of 16:8 h light:dark, 28:26° C., 10% to 20% relative humidity. Indoxyl glycopyranoside (IG) was formulated in water and applied and controls were given equal volumes of water without IG. […] Clear plastic 500 cc containers, perforated for drainage, were filled to a depth of 10 cm with up to 900 grams of microbeads each. Initially, basal plates of bulbs were immersed 1 cm into moistened 700 μm nmd silicate beads to initiate rooting. […] Controls were treated with addition of 0.1 ml water to their media. After 8 h uptake of the treatments, fertigation resumed in a manner consistent with pH-control. […]
For all experiments, at 7 d to 14 d after treatment, microbeads were saturated with water. […] For paperwhites, volumes of entire roots were measured by displacement of water in glass beakers.

Entries after “also recorded” stand apart in the source; their conditions may differ.

For `CC(=O)OC[C@H]1O[C@H](OC(C)=O)[C@@H](OC(C)=O)[C@@H](OC(C)=O)[C@@H]1OC(C)=O` [MP, pentaacetyl-α-D-mannopyranose], the “mean dry weight of whole plants” value in the assay on Radish seedlings (100 μM, 48 h) stood at 8.2 mg. The “growth response compared to Nutrient Control (visual)” value in the assay on Radish seedlings (48 h) was “advanced growth responses”. The “potency compared with the mixed anomers” value in the assay on Radish seedlings (effective doses 100 μM MP and 1 mM TAM) is on record as “higher potency”.
Turning to `OC[C@H]1O[C@H](OC[C@H]2OC(O)[C@@H](O)[C@@H](O[C@H]3O[C@H](CO)[C@@H](O)[C@H](O)[C@@H]3O)[C@@H]2O)[C@@H](O)[C@@H](O)[C@@H]1O` (stereo partly drawn) [triose, α-1,3-α-1,6 mannotriose], the “seedling growth compared with no triose” value in assay [1] (1 μM triose, lacking Ca2+) is given as “comparable to seedlings grown with no triose”. Besides, in assay [1] (0.3, 1 or 10 μM triose with Mn2+ and Ca2+, 1 day treatment, second day), the “mean dry weight compared with medium with no triose” value is reported as “significantly greater”. Besides, the “concentration at which no growth enhancement was observed” value in assay [1] (radish seedlings, complete media) is given as “less than 0.3 μM”.
As for `CO[C@H]1O[C@H](CO)[C@@H](O)[C@H](O)[C@H]1O` [MeG, methyl-α-D-glucopyranoside, reference compound], in assay [2] (foliar 129 mM with Ca, Mn and ammoniacal nitrogen), the “productivity over nutrient and untreated controls” value is listed as “consistently increased productivities”. For the same compound, the “active concentration applied for growth response” value in assay [2] came out at 129 mM.
Turning to `OC[C@H]1O[C@H](O[C@H]2[C@H](O)[C@@H](O)C(O)O[C@@H]2CO)[C@H](O)[C@@H](O)[C@@H]1O` (mixture of isomers) [maltose], in the assay with plants, the “potency relative to alpha-MeG” value is “lower potency” and the “potency relative to beta-MeG” value is listed as 9 ×.
On to `CC(=O)OC[C@H]1OC(O)[C@@H](OC(C)=O)[C@@H](OC(C)=O)[C@@H]1OC(C)=O` (stereo partly drawn) [TAM, 2,3,4,6-tetra-O-acetyl-D-mannopyranose (αβ)], for which the “mean dry weight of whole plants” value with Radish seedlings (100 μM, 48 h) was found to be 8.1 mg; with Radish seedlings (1 mM, 48 h) it was 8.8 mg. For the same compound, the “difference of mean dry weight from the Nutrient Control” value with Radish seedlings (100 μM, 48 h, p=0.11) is listed as “no significant difference”. Also, in the assay with Radish seedlings (48 h), the “growth response compared to Nutrient Control (visual)” value was “advanced growth responses”.
As to `Nc1ccc(O[C@H]2O[C@H](CO)[C@@H](O)[C@H](O)[C@@H]2O)cc1` [APM, 4-amino-phenyl-α-D-mannopyranoside], the “root increase compared to identical control formulation” value in the assay with radish is recorded as 20%. Also, the “root mean dry weight over the Nutrient Control” value in assay [2] (foliar 0.3 mM with nutrients) was “significant (n=72; p=0.003) increase”. Besides, the “root mean dry weight increase over controls” value in assay [2] (foliar 0.3 mM, 200 l/ha, harvest 12 d after treatment, n=72, p=0.003) is on record as “approximately 20%”. Also, the “active concentration applied for growth response” value in assay [2] is 0.3 mM. The “mean dry weight of whole plants” value in the assay with Radish seedlings (5 μM, 48 h) turned out to be 9.4 mg; in the assay with Radish seedlings (10 μM, 48 h), 10.3 mg; in the assay on Radish seedlings (100 μM, 48 h), 11 mg. For the same compound, in the assay with Radish seedlings (5 μM, 48 h, p=0.06), the “difference of mean dry weight from the Nutrient Control” value is reported as “not significantly different; also recorded: no significant difference”. For the same compound, in the assay on Radish seedlings (100 μM, 48 h), the “enhancement of mean dry weight over Nutrient Control” value came to 10%. The “growth response compared to Nutrient Control (visual)” value in the assay on Radish seedlings (48 h) is recorded as “advanced growth”. Also, the “root and shoot development / productivity compared to Control” value in the assay on Crocus was “clearly advanced productivity; also recorded: advanced root and shoot development”.
